Experimental findings from BindingDB's records for doi:10.1021/jm001055e (Friedrich-Alexander University, 2001) are described below.

This assay has as its target T1, D(4) dopamine receptor (Homo sapiens, UniProt P21917).
T1 sequence (P21917 whole entry): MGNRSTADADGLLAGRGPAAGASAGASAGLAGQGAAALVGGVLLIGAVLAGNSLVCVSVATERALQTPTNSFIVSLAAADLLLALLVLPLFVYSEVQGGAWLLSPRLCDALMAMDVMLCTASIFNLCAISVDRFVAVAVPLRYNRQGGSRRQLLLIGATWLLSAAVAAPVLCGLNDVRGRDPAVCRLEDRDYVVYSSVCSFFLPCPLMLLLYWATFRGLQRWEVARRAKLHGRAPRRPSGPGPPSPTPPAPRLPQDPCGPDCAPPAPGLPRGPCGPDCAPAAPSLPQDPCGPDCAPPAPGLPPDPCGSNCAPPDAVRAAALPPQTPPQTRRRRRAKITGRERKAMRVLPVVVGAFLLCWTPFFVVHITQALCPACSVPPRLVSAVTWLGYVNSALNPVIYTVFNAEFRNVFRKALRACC
The experiment in a line: Ability to displace [3H]spiperone from dopamine receptor D4.4 expressed in CHO-K1 cells.

What is called Ki is a measure of affinity in units of concentration, obtained from inhibition or displacement. As for `Cc1cccc2c(CN3CCN(c4ccc(Cl)cc4)CC3)cnn12` [4-(4-Chloro-phenyl)-1-(7-methyl-pyrazolo[1,5-a]pyridin-3-ylmethyl)-piperazin-1-ium], the affinity corresponds to a Ki of 2.69 nM. The same measure for `N#CC(C#N)=Cc1ccc(CN2CCN(c3ccc(Cl)cc3)CC2)[nH]1` [4-(4-Chloro-phenyl)-1-[5-(2,2-dicyano-vinyl)-1H-pyrrol-2-ylmethyl]-piperazin-1-ium]: 9.55 nM. The same measure for `Clc1ccc(N2CCN(Cc3ccccc3)CC2)cc1`: 251 nM.

Molecule `FC(F)(F)c1cccc(N2CCN(Cc3cnn4ccccc34)CC2)c1` gave a Ki of 1.91 nM.

Molecule `Clc1ccc(N2CCN(Cc3ccc[nH]3)CC2)cc1` showed a Ki of 26.3 nM. Against the preceding molecule, the Ki is about 14-fold higher.

Consider `CCN1CCN(Cc2cnn3ccccc23)CC1`, for which the Ki worked out at 23900 nM.

Consider `Fc1ccc(N2CCN(Cc3cnn4ccccc34)CC2)cc1`, for which the Ki was 20 nM. Against the preceding molecule, the Ki is about 1200-fold lower. Under `OCc1ccc2c(CN3CCN(c4ccccc4)CC3)cnn2c1` stands 19.5 nM; under `Clc1ccc(N2CCN(Cc3cnn4c(I)cccc34)CC2)cc1`, 5.01 nM; under `Clc1ccc(N2CCN(Cc3cnn4ccccc34)CC2)cc1Cl`, 5.62 nM. For the molecule `Clc1ccc(N2CCN(Cc3cc[nH]c3)CC2)cc1`, the Ki was 38.9 nM. Under `Clc1cccc(N2CCN(Cc3cnn4c3ccc3ccccc34)CC2)c1` stands 218 nM; under `C#Cc1cccc2c(CN3CCN(c4ccc(Cl)cc4)CC3)cnn12` [3-[4-(4-Chloro-phenyl)-piperazin-1-ylmethyl]-7-ethynyl-pyrazolo[1,5-a]pyridine], 1.23 nM; under `Clc1ccc(N2CCN(Cc3cc4ccccn4n3)CC2)cc1` [4-(4-Chloro-phenyl)-1-pyrazolo[1,5-a]pyridin-2-ylmethyl-piperazin-1-ium], 2.19 nM.

`Clc1ccc(N2CCN(Cc3cc4ccccc4[nH]3)CC2)cc1`: the affinity corresponds to a Ki of 18.2 nM. The same measure for `Cc1cccn2ncc(CN3CCN(c4ccc(Cl)cc4)CC3)c12` [3-[4-(4-Chloro-phenyl)-piperazin-1-ylmethyl]-4-methyl-pyrazolo[1,5-a]pyridine]: 50.1 nM.

For `C#Cc1ccc(N2CCN(Cc3cnn4ccccc34)CC2)cc1`, the Ki was determined as 4.37 nM. Under `Clc1cccc(N2CCN(Cc3cnn4ccc5ccccc5c34)CC2)c1` stands 794 nM.
